Reference: patent US20250270191A1, “QUINOLONE BCL6 BIFUNCTIONAL DEGRADERS” (Treeline Biosciences, Inc., priority 2022, published 2025)

Molecular target: T1, Human BCL6 protein (N-terminal HiBiT tagged BCL6 in HT1080 cells) (Homo sapiens, UniProt P41182+Q96SW2)
T1 construct: Human BCL6 protein coding open reading frame; expressed in transfected cells; host or cells: HT1080 (ATCC CCL-121), stably transduced with lentivirus pLV-UBC-N-HiBiT-BCL6-PGK-puro
Assay: HiBiT based BCL6 degradation assay
Type: cell-based
Settings: HT1080 cells expressing N-terminal HiBiT tagged BCL6; 5 hours incubation; BCL6 degradation normalized with DMSO control
Outline: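 HT1080 cells stably expressing N-terminal HiBiT-BCL6 were treated with compound dilution series for 5 h at 37° C. in RPMI 1640 with 10% FBS. HiBiT lytic luminescence read after 15 min; degradation normalized to DMSO, with curves fitted by four-parameter logistic model.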

Row | Structure (SMILES) | Ymin (5 hr)
1 | CNC(=O)COc1cc2cc(Nc3nc(N4CCC(CN5CCN(C(=O)c6ccc7c(C8CCC(=O)NC8=O)nn(C)c7c6)CC5)CC4)ncc3Cl)ccc2n(C)c1=O (stereo not drawn) [Compound 322, 2-((6-((5-chloro-2-(4-((4-(3-(2,6-dioxopiperidin-3-yl)-1-methyl-1H-indazole-6-carbonyl)piperazin-1-yl)methyl)piperidin-1-yl)pyrimidin-4-yl)amino)-1-methyl-2-oxo-1,2-dihydroquinolin-3-yl)oxy)-N-methylacetamide] | +++ (25% < Ymin ≤ 50%)
2 | CNC(=O)COc1cc2cc(Nc3nc(N4CCN(CC5CCN(C(=O)c6cccc7c(C8CCC(=O)NC8=O)nn(C)c67)CC5)CC4)ncc3Cl)ccc2n(C)c1=O (stereo not drawn) [Compound 323, 2-((6-((5-chloro-2-(4-((1-(3-(2,6-dioxopiperidin-3-yl)-1-methyl-1H-indazole-7-carbonyl)piperidin-4-yl)methyl)piperazin-1-yl)pyrimidin-4-yl)amino)-1-methyl-2-oxo-1,2-dihydroquinolin-3-yl)oxy)-N-methylacetamide] | +++ (25% < Ymin ≤ 50%)
3 | CNC(=O)COc1cc2cc(Nc3nc(N4CCC(CN5CCN(C(=O)c6cccc7c(C8CCC(=O)NC8=O)nn(C)c67)CC5)CC4)ncc3Cl)ccc2n(C)c1=O (stereo not drawn) [Compound 324, 2-((6-((5-chloro-2-(4-((4-(3-(2,6-dioxopiperidin-3-yl)-1-methyl-1H-indazole-7-carbonyl)piperazin-1-yl)methyl)piperidin-1-yl)pyrimidin-4-yl)amino)-1-methyl-2-oxo-1,2-dihydroquinolin-3-yl)oxy)-N-methylacetamide] | +++ (25% < Ymin ≤ 50%)
4 | CNC(=O)COc1cc2cc(Nc3nc(N4C5CCC4CN(CC4CCN(c6cccc7c(C8CCC(=O)NC8=O)nn(C)c67)CC4)C5)ncc3Cl)ccc2n(C)c1=O (stereo not drawn) [Compound 325, 2-((6-((5-chloro-2-(3-((1-(3-(2,6-dioxopiperidin-3-yl)-1-methyl-1H-indazol-7-yl)piperidin-4-yl)methyl)-3,8-diazabicyclo[3.2.1]octan-8-yl)pyrimidin-4-yl)amino)-1-methyl-2-oxo-1,2-dihydroquinolin-3-yl)oxy)-N-methylacetamide] | +++ (25% < Ymin ≤ 50%)
5 | CNC(=O)COc1cc2cc(Nc3nc(N4CCC5CN(c6cccc7c(C8CCC(=O)NC8=O)nn(C)c67)CC5C4)ncc3Cl)ccc2n(C)c1=O (stereo not drawn) [Compound 326, 2-((6-((5-chloro-2-(2-(3-(2,6-dioxopiperidin-3-yl)-1-methyl-1H-indazol-7-yl)octahydro-5H-pyrrolo[3,4-c]pyridin-5-yl)pyrimidin-4-yl)amino)-1-methyl-2-oxo-1,2-dihydroquinolin-3-yl)oxy)-N-methylacetamide] | +++ (25% < Ymin ≤ 50%)
6 | CNC(=O)COc1cc2cc(Nc3nc(N4CCC(C(=O)N5CCN(c6cccc7c(C8CCC(=O)NC8=O)nn(C)c67)CC5)CC4)ncc3Cl)ccc2n(C)c1=O (stereo not drawn) [Compound 327, 2-((6-((5-chloro-2-(4-(4-(3-(2,6-dioxopiperidin-3-yl)-1-methyl-1H-indazol-7-yl)piperazine-1-carbonyl)piperidin-1-yl)pyrimidin-4-yl)amino)-1-methyl-2-oxo-1,2-dihydroquinolin-3-yl)oxy)-N-methylacetamide] | ++++ (Ymin ≤ 25%)
7 | CNC(=O)COc1cc2cc(Nc3nc(N4CCC(C(=O)N5CCN(c6ccc7c(C8CCC(=O)NC8=O)nn(C)c7c6)CC5)CC4)ncc3Cl)ccc2n(C)c1=O (stereo not drawn) [Compound 328, 2-((6-((5-chloro-2-(4-(4-(3-(2,6-dioxopiperidin-3-yl)-1-methyl-1H-indazol-6-yl)piperazine-1-carbonyl)piperidin-1-yl)pyrimidin-4-yl)amino)-1-methyl-2-oxo-1,2-dihydroquinolin-3-yl)oxy)-N-methylacetamide] | ++++ (Ymin ≤ 25%)
8 | CNC(=O)COc1cc2cc(Nc3nc(N4CCCC5(CN(c6ccc7c(C8CCC(=O)NC8=O)nn(C)c7c6)C5)C4)ncc3Cl)ccc2n(C)c1=O (stereo not drawn) [Compound 329, 2-((6-((5-chloro-2-(2-(3-(2,6-dioxopiperidin-3-yl)-1-methyl-1H-indazol-6-yl)-2,6-diazaspiro[3.5]nonan-6-yl)pyrimidin-4-yl)amino)-1-methyl-2-oxo-1,2-dihydroquinolin-3-yl)oxy)-N-methylacetamide] | ++ (50% < Ymin ≤ 70%)
9 | CNC(=O)COc1cc2cc(Nc3nc(N4CCCC5(CCCN(c6cccc7c(C8CCC(=O)NC8=O)nn(C)c67)C5)C4)ncc3Cl)ccc2n(C)c1=O (stereo not drawn) [Compound 330, 2-((6-((5-chloro-2-(8-(3-(2,6-dioxopiperidin-3-yl)-1-methyl-1H-indazol-7-yl)-2,8-diazaspiro[5.5]undecan-2-yl)pyrimidin-4-yl)amino)-1-methyl-2-oxo-1,2-dihydroquinolin-3-yl)oxy)-N-methylacetamide] | ++ (50% < Ymin ≤ 70%)
10 | CNC(=O)COc1cc2cc(Nc3nc(N4CCCC5(CCN(c6ccc7c(C8CCC(=O)NC8=O)nn(C)c7c6)C5)C4)ncc3Cl)ccc2n(C)c1=O (stereo not drawn) [Compound 331, 2-((6-((5-chloro-2-(2-(3-(2,6-dioxopiperidin-3-yl)-1-methyl-1H-indazol-6-yl)-2,7-diazaspiro[4.5]decan-7-yl)pyrimidin-4-yl)amino)-1-methyl-2-oxo-1,2-dihydroquinolin-3-yl)oxy)-N-methylacetamide] | +++ (25% < Ymin ≤ 50%)
11 | CNC(=O)COc1cc2cc(Nc3nc(N4CCC(CC5CCN(c6ccc7c(C8CCC(=O)NC8=O)nn(C)c7c6)C5)CC4)ncc3Cl)ccc2n(C)c1=O (stereo not drawn) [Compound 332, 2-((6-((5-chloro-2-(4-((1-(3-(2,6-dioxopiperidin-3-yl)-1-methyl-1H-indazol-6-yl)pyrrolidin-3-yl)methyl)piperidin-1-yl)pyrimidin-4-yl)amino)-1-methyl-2-oxo-1,2-dihydroquinolin-3-yl)oxy)-N-methylacetamide] | +++ (25% < Ymin ≤ 50%)
12 | CNC(=O)COc1cc2cc(Nc3nc(N4CCC(CN5CCN(c6cccc7c(C8CCC(=O)NC8=O)nn(C)c67)CC5)CC4)ncc3Cl)ccc2n(C)c1=O (stereo not drawn) [Compound 333, 2-((6-((5-chloro-2-(4-((4-(3-(2,6-dioxopiperidin-3-yl)-1-methyl-1H-indazol-7-yl)piperazin-1-yl)methyl)piperidin-1-yl)pyrimidin-4-yl)amino)-1-methyl-2-oxo-1,2-dihydroquinolin-3-yl)oxy)-N-methylacetamide] | ++++ (Ymin ≤ 25%)
13 | CNC(=O)COc1cc2cc(Nc3nc(N4CCC(CN5CCN(c6ccc7c(C8CCC(=O)NC8=O)nn(C)c7c6)CC5)CC4)ncc3Cl)ccc2n(C)c1=O (stereo not drawn) [Compound 334, 2-((6-((5-chloro-2-(4-((4-(3-(2,6-dioxopiperidin-3-yl)-1-methyl-1H-indazol-6-yl)piperazin-1-yl)methyl)piperidin-1-yl)pyrimidin-4-yl)amino)-1-methyl-2-oxo-1,2-dihydroquinolin-3-yl)oxy)-N-methylacetamide] | ++++ (Ymin ≤ 25%)
14 | CNC(=O)COc1cc2cc(Nc3nc(N4CCCC5(CCCN(c6ccc7c(C8CCC(=O)NC8=O)nn(C)c7c6)C5)C4)ncc3Cl)ccc2n(C)c1=O (stereo not drawn) [Compound 335, 2-((6-((5-chloro-2-(8-(3-(2,6-dioxopiperidin-3-yl)-1-methyl-1H-indazol-6-yl)-2,8-diazaspiro[5.5]undecan-2-yl)pyrimidin-4-yl)amino)-1-methyl-2-oxo-1,2-dihydroquinolin-3-yl)oxy)-N-methylacetamide] | ++ (50% < Ymin ≤ 70%)
15 | CNC(=O)COc1cc2cc(Nc3nc(N4C[C@@H](C)N(CC5CCN(c6cccc7c(C8CCC(=O)NC8=O)nn(C)c67)CC5)[C@@H](C)C4)ncc3Cl)ccc2n(C)c1=O (stereo partly drawn) [Compound 336a, 2-((6-((5-chloro-2-((3S,5R)-4-((1-(3-(2,6-dioxopiperidin-3-yl)-1-methyl-1H-indazol-7-yl)piperidin-4-yl)methyl)-3,5-dimethylpiperazin-1-yl)pyrimidin-4-yl)amino)-1-methyl-2-oxo-1,2-dihydroquinolin-3-yl)oxy)-N-methylacetamide] | ++++ (Ymin ≤ 25%)
16 | CNC(=O)COc1cc2cc(Nc3nc(N4CCN(C(C)(C)C5CCN(c6cccc7c(C8CCC(=O)NC8=O)nn(C)c67)CC5)CC4)ncc3Cl)ccc2n(C)c1=O (stereo not drawn) [Compound 337, 2-((6-((5-chloro-2-(4-(2-(1-(3-(2,6-dioxopiperidin-3-yl)-1-methyl-1H-indazol-7-yl)piperidin-4-yl)propan-2-yl)piperazin-1-yl)pyrimidin-4-yl)amino)-1-methyl-2-oxo-1,2-dihydroquinolin-3-yl)oxy)-N-methylacetamide] | ++++ (Ymin ≤ 25%)
17 | CNC(=O)COc1cc2cc(Nc3nc(N4CC5CCC(Nc6ccc7c(C8CCC(=O)NC8=O)nn(C)c7c6)CC5C4)ncc3Cl)ccc2n(C)c1=O (stereo not drawn) [Compound 338, 2-((6-((5-chloro-2-(5-((3-(2,6-dioxopiperidin-3-yl)-1-methyl-1H-indazol-6-yl)amino)octahydro-2H-isoindol-2-yl)pyrimidin-4-yl)amino)-1-methyl-2-oxo-1,2-dihydroquinolin-3-yl)oxy)-N-methylacetamide] | ++ (50% < Ymin ≤ 70%)
18 | CNC(=O)COc1cc2cc(Nc3nc(N4CC5CCC(Nc6cccc7c(C8CCC(=O)NC8=O)nn(C)c67)CC5C4)ncc3Cl)ccc2n(C)c1=O (stereo not drawn) [Compound 339, 2-((6-((5-chloro-2-(5-((3-(2,6-dioxopiperidin-3-yl)-1-methyl-1H-indazol-7-yl)amino)octahydro-2H-isoindol-2-yl)pyrimidin-4-yl)amino)-1-methyl-2-oxo-1,2-dihydroquinolin-3-yl)oxy)-N-methylacetamide] | ++ (50% < Ymin ≤ 70%)
